How the values were obtained:
Ctenocephalides felis = test: In-vitro flea exposure effectiveness (contact with collar strips or treated filter papers); settings: filter paper 21 cm^2 loaded with 500 μL of 10 mg/mL in acetone, 24 (±1) hours; for Geometric Mean No. Live Fleas: 3 vials; for Percentage Reduction Live Fleas: versus acetone only control; for Vial 1 # Live Fleas / Vial 2 # Live Fleas / Vial 3 # Live Fleas: approximately 20 fleas
Description: The in-vitro susceptibility of Ctenocephalides felis exposed to treated filter papers and to external device compositions (antiparasitic collar) containing isoxazoline active agents (S)-Ia, (S)-Id and (Ia) was determined, wherein the collars comprise a polyvinyl chloride (PVC) matrix or a polybutylene succinate (PBS) matrix.
To determine the in-vitro susceptibility of Ctenocephalides felis exposed to treated filter papers or to the collars compositions comprising the isoxazoline active agent, approximately 20 fleas were transferred to vials containing either the collars or filter papers in accordance with the test groups outlined in Table 3. On Day 0, approximately 20 fleas were placed in 27×55 mm, 5 dram glass vials containing the collars comprising the active agent as outlined in Table 3 or in 60 mm×40 mm glass vials containing treated filter papers. The filter papers tested in groups 9-12 were loaded with 500 μL of a 10 mg/mL solution containing the active agent dissolved in acetone. […] Test vials were placed in an environmental chamber at approximately 28° C. and approximately 80% RH.
The number of dead fleas in each vial were counted on Day 1 at 24 (±1) hours after initial exposure. Fleas were counted as dead if they were not able to maintain an upright posture.

[1] = Plasma drug concentrations in dogs wearing PVC based isoxazoline collars; assay type: in vivo, dog; settings: 11% active, FIG. 5
Description: PK data: Blood samples from all the dogs were taken periodically and drug concentrations in the plasma were analyzed (depicted in FIG. 5). […] In other words, these compounds are likely acting by a systemic mechanism, even though they are applied in a topical collar dosage form. These PK data appear also to correlate with the flea and tick efficacy data in Table 6 and 7 (e.g., compound (S)-Ia is the best, (S)-Id is the second, and Ia the third).

[2] = Isoxazoline compounds in dog hair; assay type: in vivo; settings: hair collected on Day 110 from 5 areas, PVC collars, FIG. 6
Description: Hair samples from each dog were collected on Day 110 from 5 different areas: (1) central thorax, (2) lower back/caudal region, (3) right thorax, (4) left thorax, and […] top of neck/base of skull above collar site. Suitable bioanalytical methods were used for analysis of the three isoxazoline compounds in dog hair. […] Results for the other two isoxazoline compounds Ia and (S)-Ia are very similar.

Row | SMILES | Geometric Mean No. Live Fleas (Ctenocephalides felis) | Percentage Reduction Live Fleas (Ctenocephalides felis) [%] | Vial 1 # Live Fleas (Ctenocephalides felis) | Vial 2 # Live Fleas (Ctenocephalides felis) | Vial 3 # Live Fleas (Ctenocephalides felis) | PK data, order of the compounds (correlating with flea and tick efficacy) [1] | Level of the drug in dog hair, top of the neck (collar site) compared with other areas [2] | Isoxazoline compound levels in hair throughout bodies of the dogs [2]
1 | O=C(CNC(=O)c1ccc(C2=NO[C@@](c3cc(Cl)cc(C(F)(F)F)c3)(C(F)(F)F)C2)c2ccccc12)NCC(F)(F)F [(S)-Ia] | 19.0 | 6.5 | 19 | 20 | 18 | the best | very similar | 
2 | O=C(CNC(=O)c1ccc(C2=NO[C@@](c3cc(Cl)c(F)c(C(F)(F)F)c3)(C(F)(F)F)C2)c2ccccc12)NCC(F)(F)F [(S)-Id] |  |  |  |  |  | the second | highest level of the drug | detectable
3 | O=C(CNC(=O)c1ccc(C2=NOC(c3cc(Cl)cc(C(F)(F)F)c3)(C(F)(F)F)C2)c2ccccc12)NCC(F)(F)F (centres unmarked) [(Ia), 4-[5-[3-chloro-5-(trifluoromethyl)phenyl]-4,5-dihydro-5-(trifluoromethyl)-3-isoxazolyl]-N-[2-oxo-2-[(2,2,2-trifluoroethyl)amino]ethyl]-1-naphthalanecarboxamide] | 19.6 | 3.3 | 19 | 21 | 19 | the third | very similar | 
